Results on 28 compounds are retold here after patent publication US8354403B2, “Pyrrolidine derived beta 3 adrenergic receptor agonists” (Merck Sharp & Dohme Corp., priority 2009, dated 2013).

Read-outs that look alike come from different tables or passages of the source.

One assay concerns the target T1, β3AR (Rattus norvegicus, UniProt P26255).
T1 construct: host or cells: live rats (bladder, in vivo)
The settings on record: rats, intravenous administration, cited from earlier work.

Assay [1] deals with T2, human β3 adrenergic receptor (Homo sapiens, UniProt P13945).
T2 construct: expressed in transfected cells; host or cells: Chinese hamster ovary (CHO) cells, stably transfected
T2 sequence (P13945 whole entry): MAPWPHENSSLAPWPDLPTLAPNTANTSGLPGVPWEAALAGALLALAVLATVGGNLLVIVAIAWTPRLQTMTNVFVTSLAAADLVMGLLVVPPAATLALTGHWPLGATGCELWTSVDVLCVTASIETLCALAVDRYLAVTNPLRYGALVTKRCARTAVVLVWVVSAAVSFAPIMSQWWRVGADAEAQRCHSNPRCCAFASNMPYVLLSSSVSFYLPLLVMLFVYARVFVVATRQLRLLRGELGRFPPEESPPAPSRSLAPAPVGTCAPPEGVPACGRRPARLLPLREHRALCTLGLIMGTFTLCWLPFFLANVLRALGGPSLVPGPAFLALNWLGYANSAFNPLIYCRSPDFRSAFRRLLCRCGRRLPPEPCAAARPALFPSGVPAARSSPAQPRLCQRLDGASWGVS
Description: Beta-3 agonist in vitro functional assay: cAMP production (LANCE TR-FRET) in CHO cells stably transfected with the cloned β3 receptor. Format: cell-based. The procedure, abridged: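 CHO cells stably expressing the cloned receptor, in HEPES-buffered HBSS with BSA and 0.6 mM IBMX, 6,000 cells/well, exposed to compound for 30 min at RT. cAMP read by LANCE TR-FRET against a cAMP standard curve. Isoproterenol defines maximal stimulation.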

Where [2] appears, read: Table 5, cAMP, CHO cells, read-out: Human β3 agonist functional activity.
[3] abbreviates: Table 10, Beta-3 agonist in vitro functional assay, read-out: Human β3 agonist functional activity.
Where [4] appears, read: Table 8, Beta-3 agonist in vitro functional assay, read-out: Human β3 agonist functional activity.
Where [5] appears, read: Table 9, Beta-3 agonist in vitro functional assay, read-out: Human β3 agonist functional activity.
Setting [6] is: Table 4, cAMP, CHO cells, read-out: Human β3 agonist functional activity.

T1 sequence (P26255 whole entry): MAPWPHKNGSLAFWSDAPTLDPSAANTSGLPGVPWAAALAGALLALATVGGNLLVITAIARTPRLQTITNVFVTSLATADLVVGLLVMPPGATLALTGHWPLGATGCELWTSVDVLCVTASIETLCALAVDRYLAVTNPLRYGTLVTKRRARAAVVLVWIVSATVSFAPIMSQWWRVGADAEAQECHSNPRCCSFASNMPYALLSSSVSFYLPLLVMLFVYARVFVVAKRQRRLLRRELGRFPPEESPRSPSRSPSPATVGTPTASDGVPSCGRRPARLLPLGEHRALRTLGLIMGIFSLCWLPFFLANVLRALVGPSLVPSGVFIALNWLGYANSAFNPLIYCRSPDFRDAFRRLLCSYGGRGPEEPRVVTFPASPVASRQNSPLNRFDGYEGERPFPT

Take `C[C@H](Cc1ccc2c(c1)OC(C(=O)[O-])(C(=O)[O-])O2)NC[C@H](O)c1cccc(Cl)c1.[Na+].[Na+]` [CL316243]: at β3AR (cystometric studies), the bladder capacity entry was “increases bladder capacity”, the micturition interval entry is on record as “prolongation of micturition interval” and the residual urine volume result is on record as “without increasing residual urine volume”. Also, the bladder pressure entry on β3AR is “reduces bladder pressure”.

Regarding `N#CC1(c2cnccn2)C2CN(C(=O)c3ccc(C[C@@H]4CC[C@H]([C@H](O)c5ccccc5)N4)cc3)CC21` (stereo partly shown) [Example 235], the EC50 in assay [1] (Table 7, cAMP, CHO cells, ranges as given for Tables 6 and 7, read-out: Human β3 agonist functional activity) was in the range of 0.01 to 0.0999 µM.

For the compound `O=C(c1ccc(C[C@@H]2CC[C@H]([C@H](O)c3ccccc3)N2)cc1)N1CCC(c2ncc(-c3ccccc3)[nH]2)CC1` [Example 79], the EC50 in assay [1] (setting [2]) fell in the range of 0.1 to 0.999 µM.

On to `CC(C(=O)N1CCCC2(CCCCO2)C1)N1CCN(C(=O)c2ccc(C[C@@H]3CC[C@H]([C@H](O)c4ccccc4)N3)cc2)CC1` (stereo partly shown) [Example 498], for which the EC50 in assay [1] (setting [3]) lay in the range of 0.01 to 0.0999 µM.

Take `CC(C(=O)NC1CCNC1=O)N1CCN(C(=O)c2ccc(C[C@@H]3CC[C@H]([C@H](O)c4ccccc4)N3)cc2)CC1` (stereo partly shown) [Example 458]: the EC50 in assay [1] (setting [3]) fell in the range of 0.1 to 0.999 µM.

As to `O=C(c1ccc(CC2CCC(C(O)c3ccccc3)N2)cc1)N1CCN(C2CCc3cccnc32)CC1` (single isomer, unassigned) [Example 598], the EC50 in assay [1] (Table 12, human β3 functional activity given as ranges, read-out: Human β3 agonist functional activity) fell in the range of 0.001 to 0.0099 µM.

As to `O=C(c1ccc(C[C@@H]2CC[C@H]([C@H](O)c3ccccc3)N2)cc1)N1CCC2(CCNC2)CC1` [Example 306], the EC50 in assay [1] (setting [4]) was 0.001 to 0.0099 µM.

Regarding `CCOc1cccnc1N1CCN(C(=O)c2ccc(C[C@@H]3CC[C@H]([C@H](O)c4ccccc4)N3)cc2)CC1` [Example 362], the EC50 in assay [1] (setting [5]) lay within 0.01 to 0.0999 µM.

With `O=C(c1ccc(C[C@@H]2CC[C@H]([C@H](O)c3ccccc3)N2)c(Br)c1)N1CCC2(CCOC2=O)CC1` [Example 610], the EC50 in assay [1] (Table 13, human Beta-3 agonist functional activity given as range, read-out: Human β3 agonist functional activities) fell in the range of 0.001 to 0.0099 µM.

As to `O=C1OC2(CCN(C(=O)c3ccc(C[C@@H]4CC[C@H]([C@H](O)c5ccccc5)N4)cc3)CC2)c2scnc21` [Example 289], the EC50 in assay [1] (setting [4]) fell in the range of 0.01 to 0.0999 µM.

On to `O=C(c1ccc(C[C@@H]2CC[C@H]([C@H](O)c3ccccc3)N2)cc1)N1CCC2(CCCO2)CC1` [Example 307], for which, in assay [1] (setting [4]), the EC50 lay in the range of 0.01 to 0.0999 µM.

For the compound `CN(C)C(=O)c1cc(OC2CCN(C(=O)c3ccc(C[C@@H]4CC[C@H]([C@H](O)c5ccccc5)N4)cc3)CC2)no1` [Example 158], in assay [1] (setting [2]), the EC50 fell in the range of 0.1 to 0.999 µM.

Regarding `O=C(c1ccc(C[C@@H]2CC[C@H]([C@H](O)c3ccccc3)N2)cc1)N1CCC(O)(Cc2ccccc2)CC1` [Example 245], in assay [1] (setting [4]), the EC50 lay within 0.01 to 0.0999 µM.

Regarding `CC(C(=O)NCC1(C)CCC1)N1CCN(C(=O)c2ccc(C[C@@H]3CC[C@H]([C@H](O)c4ccccc4)N3)cc2)CC1` (stereo partly shown) [Example 453], in assay [1] (setting [3]), the EC50 was 0.001 to 0.0099 µM.

`CC(C(=O)N1CCCCC1C)N1CCN(C(=O)c2ccc(C[C@@H]3CC[C@H]([C@H](O)c4ccccc4)N3)cc2)CC1` (stereo partly shown) [Example 485]: in assay [1] (setting [3]), the EC50 is 0.01 to 0.0999 µM.

Take `CC1CCCN(C(=O)C(C)N2CCN(C(=O)c3ccc(C[C@@H]4CC[C@H]([C@H](O)c5ccccc5)N4)cc3)CC2)C1` (stereo partly shown) [Example 486]: the EC50 in assay [1] (setting [3]) fell in the range of 0.01 to 0.0999 µM.

As to `O=C(c1ccc(C[C@@H]2CC[C@H]([C@H](O)c3cccnc3)N2)cc1)N1CCC2Oc3ccccc3OC2C1` (stereo partly shown) [Example 59], the EC50 in assay [1] (setting [6]) fell in the range of 0.01 to 0.0999 µM.

Regarding `O=C(c1ccc(C[C@@H]2CC[C@H]([C@H](O)c3cccnc3)N2)cc1)N1CCN(c2nccc(-c3ccccc3)n2)CC1` [Example 377], the EC50 in assay [1] (setting [5]) lay in the range of 0.01 to 0.0999 µM.

Take `O=C(c1ccc(C[C@@H]2CC[C@H]([C@H](O)c3ccccc3)N2)cc1)N1CC2CCC(C1)N2Cc1ccccn1` [Example 535]: the EC50 in assay [1] (Table 11, cAMP, CHO cells, read-out: Human β3 agonist functional activity) lay within 0.1 to 0.999 µM.

Regarding `Cn1ncnc1CN1CCN(C(=O)c2ccc(C[C@@H]3CC[C@H]([C@H](O)c4ccccc4)N3)cc2)CC1` [Example 397], the EC50 in assay [1] (setting [5]) was 0.01 to 0.0999 µM.

With `CC(C(=O)N1CCC(O)CC1)N1CCN(C(=O)c2ccc(C[C@@H]3CC[C@H]([C@H](O)c4ccccc4)N3)cc2)CC1` (stereo partly shown) [Example 489], the EC50 in assay [1] (setting [3]) fell in the range of 0.01 to 0.0999 µM.

Turning to `CCOC(=O)C1CCN(C(=O)c2ccc(C[C@@H]3CC[C@H]([C@H](O)c4ccccc4)N3)cc2)CC1` [Example 118], the EC50 in assay [1] (setting [2]) lay within 0.01 to 0.0999 µM.

With `O=C(c1ccc(C[C@@H]2CC[C@H]([C@H](O)c3ccccc3)N2)cc1)N1CCC(S(=O)(=O)c2ccc(F)c(F)c2)CC1` [Example 138], in assay [1] (setting [2]), the EC50 was 0.01 to 0.0999 µM.

`CNC(=O)C(C)N1CCN(C(=O)c2ccc(C[C@@H]3CC[C@H]([C@H](O)c4ccccc4)N3)cc2)CC1` (stereo partly shown) [Example 435]: the EC50 in assay [1] (setting [3]) lay in the range of 0.01 to 0.0999 µM.

`O=C(c1ccc(C[C@@H]2CC[C@H]([C@H](O)c3ccccc3)N2)cc1)N1Cc2cncnc2C1` [Example 25]: the EC50 in assay [1] (setting [6]) fell in the range of 0.1 to 0.999 µM.

`CC(C(=O)N1CCC(C2CC2)CC1)N1CCN(C(=O)c2ccc(C[C@@H]3CC[C@H]([C@H](O)c4ccccc4)N3)cc2)CC1` (stereo partly shown) [Example 494]: the EC50 in assay [1] (setting [3]) was 0.01 to 0.0999 µM.

Consider `O=C(c1ccc(C[C@@H]2CC[C@H]([C@H](O)c3ccccc3)N2)cc1)N1CCCC1c1nccs1` (stereo partly shown) [Example 15], for which the EC50 in assay [1] (setting [6]) lay within 0.1 to 0.999 µM.

Consider `O=C(c1ccc(C[C@@H]2CC[C@H]([C@H](O)c3cccnc3)N2)cc1)N1CCC(N2C(=O)OCc3ccccc32)CC1` [Example 71], for which the EC50 in assay [1] (setting [2]) lay in the range of 0.001 to 0.0099 µM.
